Laboratory results: patent US9180115B2, “Cyclohexylamines” (Asana Biosciences, LLC, priority 2011, dated 2015)

Assays:
[1] = system: isolated detrusor muscle; assay: In vitro assay for effect of compounds on bladder detrusor muscle (EFS-induced contractions); design: species or system guinea-pigs; details: cumulative concentration-response
[2] = system: sodium current in DRG neurons; details: co-applied with 1 μM capsaicin, whole-cell voltage clamp; read-out: in vitro apparent affinity (IC50) for blocking sodium current in DRG neurons; cited from earlier work

SMILES	EFS-induced detrusor contractions [1]	IC50 [2] [µM]
CCN(CC)CC(=O)Nc1c(C)cccc1C [lidocaine]	concentration-dependent inhibitions of EFS-induced detrusor contractions	–
CC[N+](CC)(CC)CC(=O)Nc1c(C)cccc1C [QX-314]	–	30
